US11191820B2, “Method for inducing early T memory response with short peptides anti-tumor vaccine” (OSE IMMUNOTHERAPEUTICS, priority 2015, dated 2021)

Legend:
Assay type in all cases: in vivo, human
central memory T cells [1] = assay: Cultured IFN-γ ELISPOT after 10-day in vitro stimulation of PBMC, phase 1/2 NSCLC trial of OSE-2101; parameters: key to net SFC of vaccine positive CTL responses: —, indicates SFC response did not meet criteria and vaccine response was negative; conditions: for Mean SFC / No. Positive Responses: 6 NSCLC patients
Description: (§1) Clinical study design. Both trials were designed as phase 1/2, open label, multi-center, single dose, multiple administration studies to evaluate the safety and immunogenicity of the OSE-2101 immunotherapy. Patients were treated with 1 ml OSE-2101 every 3 weeks for a total of six doses. Each dose was administered subcutaneously in the same vicinity in the deltoid or upper thigh region, or at a contralateral site if local side-effects were observed. The study duration for each completed patient was 18 weeks. Clinical responses or patient survival were not measured in either phase 1/2 studies.
(§2) Clinical sample processing. Blood or leukapheresis product was obtained from patients at the pre-treatment, the Week 9 and Week 18 time points, 3 weeks after the third and sixth dose of OSE-2101 respectively. Peripheral blood mononuclear cells (PBMC) were isolated from samples within 24 hours of collection using a FICOLL-PAQUE density gradient and cryopreserved in containers designed to ensure optimal freezing (Mr. Frosty, Nalgene). For use, cells were rapidly thawed at 37° C. then transferred to human AB serum-containing medium for work-up.
(§3) Measurement of central T memory cells responses and T effector memory cells. The CTL responses in 16 total patients (10 colon and six NSCLC) were monitored for CTL responses against each epitope and against the wild-type epitope of epitopes analogs. For each patient, the pre-treatment, Week 9 and Week 18 time points were batch-tested in the same experiment to allow pre- versus post-treatment response comparison in the same experiment. Central T memory cells responses were measured using an IFN-γ enzyme-linked immunospot (cultured ELISPOT) assay following in vitro stimulation of PBMC for 10 days with each vaccine epitope. Briefly, PBMC from each time point were stimulated on day 0 with 10 μg/ml of each epitope individually in replicate in 48-well culture plates (2×10^6 PBMC/well). All cultures were fed with rIL-2 (Endogen, Woburn, Mass.; 10 U/ml final concentration) on days 1, 4 and 7. Ten days after initiation of culture, cells were harvested and tested for activity against specific vaccine peptides and corresponding wild-type peptides of vaccine analogs in the T memory ELISPOT assay. Cells were tested in Millipore IP 96-well plates pre-coated with mouse anti-human IFN-γ antibody (Mabtech USA, Cincinnati, Ohio). Five×10^4 cells and 1.25×10^4 cells from each culture were plated in triplicate wells together with 10^5 irradiated autologous PBMC and 10 μg/ml peptide. As a control, CTL were also tested against an irrelevant HLA-A2.1-binding HBV peptide. After 20 hours incubation, T memory ELISPOT plates were developed by performing sequential incubations with biotinylated anti-human IFN-γ antibody (Mabtech USA), Avidin-Peroxidase Complex (APC, Vector Laboratories, Burlingame, Calif.), and 3-amino-9-ethyl carbazole (AEC) substrate (Sigma Aldrich, St. Louis, Mo.). Spot-forming cells (SFC) were enumerated using a computer-assisted image analysis system (Zeiss KS ELISPOT Reader, Carl Zeiss MicroImaging, Thornwood, N.J.). Data is reported as the net SFC per 5×10^4 cells after subtracting spots induced with the irrelevant HBV peptide.

central memory T cells [2] = assay: Cultured IFN-γ ELISPOT after 10-day in vitro stimulation of PBMC, phase 1/2 colon cancer trial of OSE-2101; parameters: key to net SFC of vaccine positive CTL responses: —, indicates SFC response did not meet criteria and vaccine response was negative; conditions: for Mean SFC: 10 colon patients
Description: as §1, §2, §3

central memory T cells [3] = assay: Central memory T cell cultured ELISPOT, phase 2 trial in advanced NSCLC
Description: CTL Immune responses measured though cultured Elispot. The immunogenicity was measured in Phase 2 clinical trial on cryopreserved PBMC from each test sample were thawed in 5% human culture medium (RPMI-1640 medium with 25 mM HEPES, supplemented with 5% human AB serum, 4 mM L-glutamine, 0.5 mM sodium pyruvate, 0.1 mM MEM non-essential amino acids, 100 μg/ml streptomycin, and 100 U/ml penicillin) containing 30 μg/ml DNAase. After centrifugation for 5 minutes at 1200 rpm, the cell pellets were resuspended in 5% human culture medium and washed 2 times. For the central Memory T cell cultured ELISPOT assay, 2×10^6/ml PBMC were placed in replicate wells in a 48-well plates and stimulated for 10 days with 10 μg/ml of each peptide. As a positive control, PBMC were also stimulated with a pool of recall viral peptides. Human rIL2 (10 U/ml) was added to the peptide-stimulated cultures at day 1, day 4 and day 7. After 10 days the stimulated cells were harvested and plated at a concentration of 5×10^4/well. Assay wells also received irradiated autologous PBMC (1×10^5/well) and 10 μg/ml peptide, either the vaccine peptide, irrelevant peptide or positive control peptides. Cells stimulated in vitro with each analog epitope were also tested against the corresponding wild-type epitope.
Data analysis and acceptance criteria. Mean and standard deviation (SD) of spots in replicate wells were calculated in all assays by transferring raw ELISPOT data from each experiment to an Excel-based computer program. Positive vaccine-induced T-cell responses were determined according to the criteria described below.
Acceptance Criteria for peptide-Induced specific T-cell response through central memory T cells: The positive criteria for CTL responses used in the phase 2 trial was identical to the criteria in the phase 1/2 trials which was established prospectively after analyzing the variability of pre-treatment responses in patients against each vaccine epitope and the irrelevant HBV control epitope. A positive peptide-induced CTL/T memory response to a given epitope met all of the following conditions: 1) was greater than 5 SFC above the irrelevant epitope response, 2) was greater than the mean SFC of the irrelevant epitope response, plus 2 SD, and 3) was two-fold greater than the SFC response in the pre-vaccination sample from the same patient, plus 2 SD. The inclusion of “plus two standard deviations” was used to accommodate the assay variability and served to increase the criteria stringency.

YLSGADLNL [CEA.605D6 A]
Mean SFC (central memory T cells [1]; Week 9): 20.7 SFC per 50,000 cells | No. Positive Responses (central memory T cells [1]; Week 9): 1 | Mean SFC (central memory T cells [1]; Week 18): 137.5 SFC per 50,000 cells | No. Positive Responses (central memory T cells [1]; Week 18): 2 | net SFC of vaccine positive CTL responses (central memory T cells [1]; NSCLC patient 201, Week 9): — | net SFC of vaccine positive CTL responses (central memory T cells [1]; NSCLC patient 201, Week 18): — | net SFC of vaccine positive CTL responses (central memory T cells [1]; NSCLC patient 502, Week 9): — | net SFC of vaccine positive CTL responses (central memory T cells [1]; NSCLC patient 502, Week 18): — | net SFC of vaccine positive CTL responses (central memory T cells [1]; NSCLC patient 504, Week 9): 20.7 SFC per 50,000 cells | net SFC of vaccine positive CTL responses (central memory T cells [1]; NSCLC patient 504, Week 18): 214.3 SFC per 50,000 cells | net SFC of vaccine positive CTL responses (central memory T cells [1]; NSCLC patient 505, Week 9): — | net SFC of vaccine positive CTL responses (central memory T cells [1]; NSCLC patient 505, Week 18): 60.7 SFC per 50,000 cells | net SFC of vaccine positive CTL responses (central memory T cells [1]; NSCLC patient 532, Week 9): — | net SFC of vaccine positive CTL responses (central memory T cells [1]; NSCLC patient 532, Week 18): — | net SFC of vaccine positive CTL responses (central memory T cells [1]; NSCLC patient 651, Week 9): — | net SFC of vaccine positive CTL responses (central memory T cells [1]; NSCLC patient 651, Week 18): — | Mean SFC (central memory T cells [2]; Week 9): 84.2 SFC per 50,000 cells | Mean SFC (central memory T cells [2]; Week 18): 283.3 SFC per 50,000 cells | net SFC of vaccine positive CTL responses (central memory T cells [2]; colon patient 551, Week 9): — | net SFC of vaccine positive CTL responses (central memory T cells [2]; colon patient 551, Week 18): — | net SFC of vaccine positive CTL responses (central memory T cells [2]; colon patient 601, Week 9): 88.3 SFC per 50,000 cells | net SFC of vaccine positive CTL responses (central memory T cells [2]; colon patient 601, Week 18): — | net SFC of vaccine positive CTL responses (central memory T cells [2]; colon patient 602, Week 9): — | net SFC of vaccine positive CTL responses (central memory T cells [2]; colon patient 602, Week 18): — | net SFC of vaccine positive CTL responses (central memory T cells [2]; colon patient 603, Week 9): 114.7 SFC per 50,000 cells | net SFC of vaccine positive CTL responses (central memory T cells [2]; colon patient 603, Week 18): — | net SFC of vaccine positive CTL responses (central memory T cells [2]; colon patient 604, Week 9): 70.0 SFC per 50,000 cells | net SFC of vaccine positive CTL responses (central memory T cells [2]; colon patient 604, Week 18): 413.3 SFC per 50,000 cells | net SFC of vaccine positive CTL responses (central memory T cells [2]; colon patient 605, Week 9): — | net SFC of vaccine positive CTL responses (central memory T cells [2]; colon patient 605, Week 18): — | net SFC of vaccine positive CTL responses (central memory T cells [2]; colon patient 606, Week 9): — | net SFC of vaccine positive CTL responses (central memory T cells [2]; colon patient 606, Week 18): — | net SFC of vaccine positive CTL responses (central memory T cells [2]; colon patient 607, Week 9): 72.7 SFC per 50,000 cells | net SFC of vaccine positive CTL responses (central memory T cells [2]; colon patient 607, Week 18): 414.7 SFC per 50,000 cells | net SFC of vaccine positive CTL responses (central memory T cells [2]; colon patient 608, Week 9): — | net SFC of vaccine positive CTL responses (central memory T cells [2]; colon patient 608, Week 18): — | net SFC of vaccine positive CTL responses (central memory T cells [2]; colon patient 609, Week 9): 75.3 SFC per 50,000 cells | net SFC of vaccine positive CTL responses (central memory T cells [2]; colon patient 609, Week 18): 22.0 SFC per 50,000 cells | % of patients with positive CTL/central memory T cell response (central memory T cells [3]; phase 2, month 9): 14% | patients with positive CTL/central memory T cell response / patients tested (central memory T cells [3]; phase 2, month 9): 1/7 | % of patients with positive CTL/central memory T cell response (central memory T cells [3]; phase 2, month 12): 25% | patients with positive CTL/central memory T cell response / patients tested (central memory T cells [3]; phase 2, month 12): 1/4 | % of patients with positive CTL/central memory T cell response (central memory T cells [3]; phase 2, week 9): 27% | patients with positive CTL/central memory T cell response / patients tested (central memory T cells [3]; phase 2, week 9): 9/33 | % of patients with positive CTL/central memory T cell response (central memory T cells [3]; phase 2, week 18): 31% | patients with positive CTL/central memory T cell response / patients tested (central memory T cells [3]; phase 2, week 18): 10/32 | % of patients with positive CTL/central memory T cell response (central memory T cells [3]; phase 2, week 30): 35% | patients with positive CTL/central memory T cell response / patients tested (central memory T cells [3]; phase 2, week 30): 8/23
